The record followed here is US8129547B2, “Anticoagulation of human blood ex vivo” (priority 2006, dated 2012).

pKi: −log10 of the molar value.

One assay addresses T1, Factor XIa (Homo sapiens, UniProt P03951).
T1 construct: purchased Haemochrom Diagnostica GmbH (Essen, D)
Put plainly: Determination of Ki values, chromogenic substrate, Dixon evaluation: Factor XIa. It is filed as biochemical. To be noted: 25° C., tris buffer pH 8.0, substrate H-D-Lys(Cbo)-Pro-Arg-pNA. An excerpt:
The inhibitors used here are the commercially available exemplary inhibitors Pefabloc tPA/Xa (2,7-bis(4-amidinobenzylidene)-cyclopeptanone-(1), Pentapharm Ltd. Basel, Switzerland), CJ-FXa (benzylsulphonyl-D-arginyl-glycyl-4-amidinobenzylamide, Haemochrom GmbH, Essen, Germany) and CJ-PK (benzylsulphonyl-D-seryl-carbobenzoxylsyl-4-amidinobenzylamide, Haemochrom GmbH, Essen, Germany). Research samples were available of DX-9065a ((+)-(2S)-2-[4-[[3S)-1-acetimidoyl-3-pyrrodinyl]oxy]phenyl]-3-[7-amidino-2-naphthyl]propanic acid, Daiichi Pharmaceutical Company Ltd., Tokyo, Japan), and Otamixaban (2-(R)-(3-carbamimidoylbenyzyl)-3-(R)-[4-(1-oxypyridin-4-yl)benzoylamino]-butyric acid-methylester, Sanofi-Aventis GmbH, Frankfurt, Germany), both of which are undergoing clinical tests. In order to examine the inhibitory action of these exemplarily used inhibitors on the blood coagulation factors plasma-kallikrein, VIIa, Xa, XIa and XIIa, the Ki values of the respective enzyme-inhibitor complexes were determined.
The enzymes were produced by Haemochrom Diagnostica GmbH (Essen, D) and were dissolved in 0.154 mol/l NaCl. The substrates (Pentapharm AG, Basel, CH) were dissolved in H2O and the inhibitor was dissolved in the above-mentioned tris buffer. The following substrates were used for the individual enzymes:
200 μl of inhibitor solution were mixed with 25 μl of substrate for the determination and the reaction was started by the addition of 50 μl of enzyme. After a reaction time of 3-5 mins. 25 μl of acetic acid (50%) were added and the extinction was measured at 405 nm with a microplate reader (iEMS Reader MF 12401, Labsystems, Helsinki, Finland). The evaluation was carried out graphically according to Dixon (Biochem. J., 55, 170, 1953).
The enzymes were produced by Haemochrom Diagnostica GmbH (Essen, D), and only thrombin was manufactured in our own laboratory according to Walsmann (Pharmazie 23, 401-402, 1968). All the enzymes were dissolved in 0.154 mol/l NaCl. The substrates (Pentapharm AG, Basel, CH) were dissolved in H2O and the inhibitor was dissolved in the above-mentioned tris buffer. The following substrates were used for the individual enzymes:
200 μl of inhibitor solution were mixed with 25 μl of substrate for the determination and the reaction was started by the addition of 50 μl of enzyme. After a reaction time of 3-5 mins. 25 μl of acetic acid (50%) were added and the extinction was measured at 405 nm with a microplate reader (iEMS Reader MF 1401, Labsystems, Helsinki, Finland). The evaluation was carried out graphically according to Dixon (Biochem. J., 55, 170, 1953).

The next assay deals with T2, Factor Xa (Homo sapiens, UniProt P00742).
T2 construct: purchased Haemochrom Diagnostica GmbH (Essen, D)
Put plainly: Determination of Ki values, chromogenic substrate, Dixon evaluation: Factor Xa. It is filed as biochemical. To be noted: 25° C., tris buffer pH 8.0, substrate CH3OCO-D-Cha-Gly-Arg-pNA.

T1 sequence (P03951 388-625 limits assumed): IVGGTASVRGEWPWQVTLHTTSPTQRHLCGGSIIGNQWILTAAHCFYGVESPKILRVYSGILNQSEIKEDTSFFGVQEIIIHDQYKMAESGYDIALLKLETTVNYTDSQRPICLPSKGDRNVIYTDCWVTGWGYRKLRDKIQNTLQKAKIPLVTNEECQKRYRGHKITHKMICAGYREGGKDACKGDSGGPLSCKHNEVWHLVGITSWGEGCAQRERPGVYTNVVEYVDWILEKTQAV
T1 sequence (P03951 19-387 partner limits assumed): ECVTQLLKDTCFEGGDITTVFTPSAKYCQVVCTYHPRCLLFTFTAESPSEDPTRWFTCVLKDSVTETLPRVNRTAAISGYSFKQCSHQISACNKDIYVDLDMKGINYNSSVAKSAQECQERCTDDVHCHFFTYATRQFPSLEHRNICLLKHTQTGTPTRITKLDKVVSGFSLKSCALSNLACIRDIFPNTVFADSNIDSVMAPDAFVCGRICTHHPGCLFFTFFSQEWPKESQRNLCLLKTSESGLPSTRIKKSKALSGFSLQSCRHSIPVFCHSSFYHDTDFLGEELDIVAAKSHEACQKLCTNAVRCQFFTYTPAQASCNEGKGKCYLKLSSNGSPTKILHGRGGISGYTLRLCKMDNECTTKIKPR
T2 sequence (P00742 235-488 limits assumed): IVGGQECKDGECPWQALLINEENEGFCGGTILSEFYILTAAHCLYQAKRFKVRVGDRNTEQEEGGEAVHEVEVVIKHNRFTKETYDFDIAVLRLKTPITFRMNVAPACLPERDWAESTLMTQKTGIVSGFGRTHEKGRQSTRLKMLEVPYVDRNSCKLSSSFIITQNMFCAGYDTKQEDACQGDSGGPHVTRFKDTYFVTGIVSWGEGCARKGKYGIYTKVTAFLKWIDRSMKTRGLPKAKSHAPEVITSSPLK
T2 sequence (P00742 41-179 partner limits assumed): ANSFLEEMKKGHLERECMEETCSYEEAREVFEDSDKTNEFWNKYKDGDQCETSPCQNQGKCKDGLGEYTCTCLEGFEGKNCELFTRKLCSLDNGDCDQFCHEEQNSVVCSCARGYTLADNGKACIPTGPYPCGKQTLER

In the case of `COC(=O)[C@H](Cc1cccc(C(=N)N)c1)[C@@H](C)NC(=O)c1ccc(-c2cc[n+]([O-])cc2)cc1` (mixture of isomers) [Otamixaban, 2-(R)-(3-carbamimidoylbenyzyl)-3-(R)-[4-(1-oxypyridin-4-yl)benzoylamino]-butyric acid-methylester], the pKi at Factor XIa is 4.64.
Consider `N=C(N)c1ccc(C=C2CCCCC(=Cc3ccc(C(=N)N)cc3)C2=O)cc1` [Pefabloc tPA/Xa, 2,7-bis(4-amidinobenzylidene)-cycloheptanone-(1)], for which the negative-log Ki (pKi) on Factor XIa was 4.38; at Factor Xa, 8.29.
